Data on one substance can be found in patent US7030087B2, “Synthetic approach to designed chemical structures” (priority 1996, dated 2006).

The test system of this assay is ICAM-1. The assay is described as follows: ICAM-1 expression on endothelial cells (immunofluorescence, FACScan). Type of assay: cell-based, human. On the procedure:
In a first series of experiments, PF4 and βpep peptides were tested for their ability to prevent bFGF (fibroblast growth factor) mediated downregulation of ICAM-1. […] Simultaneously 100 μg/ml of each PF4, βpep-14, βpep-16, or medium was added. Mean ICAM-1 fluorescence intensity values were determined.
Since the in vivo situation of tumor associated EC involves the low expression or even absence of ICAM-1, the next set of experiments aimed to study the ability to reinduce ICAM-I expression after bFBF preincubation. […] In these experiments, HUVEC were pretreated for 3 days with bFGF, subsequently PF4 was added for 3 days and, where indicated in the last 16 hours of culture 4 ng/ml TNFα was added. Human umbilical vein derived endothelial cells (HUVEC) were harvested from normal human umbilical cords by perfusion with 0.125% trypsin/EDTA as described previously. Cells were cultured in fibronectin (FN) coated tissue culture flasks in culture medium (RPMI-1640 with 20% human serum (HS), supplemented with 2 mM glutamine and 100 U/ml penicillin and 0.1 mg/ml streptomycin). Immunofluorescence using indirect PE-conjugated reagents required three separate incubations. 1×10^5 EC were fixed for 1 hour in 1% paraformaldehyde, resuspended in 20 μl appropriately diluted Mab and incubated for 1 hour on ice. Subsequently, cells were washed two times in PBS/BSA (0.1%) and incubated for another 30 minutes with biotinylated rabbit-anti-mouse Ig (Dako, Glostrup, Denmark). After another 2 washings, cells were incubated with streptavidin-phycoerythrin conjugate (Dako). Stained cells were analyzed on a FACScan flowcytometer. Data analysis was performed using PCLysys software (Becton Dickinson, Mountain View, Calif.). Statistical significance of observed differences was determined using the Student's t-test.
The energy of EC to stimulation with inflammatory cytokines was the subject of a next series of experiments. For these experiments, HUVEC (human vascular endothelial cells) were pretreated with 10 ng/ml bFGF for 3 days. Subsequently, cells are subcultured for 3 days with […] in the presence of PF4. For the last 16 hours of the culture 4 ng/ml TNFα was added to induce upregulation of ICAM-1. […] The regulation of ICAM-1 at the protein level was confirmed in Northern blot analysis for detection of ICAM-1 message. In these experiments, HUVEC were cultured for 3 days with bFGF and treated for the last 4 and 24 hours with PF4 (100 μg/ml). TNFα was added 2 hours before isolation of RNA. RNA from a subconfluent EC cultures (75 cm^2 Petri-dishes) incubated with bFGF for different time-points was isolated using an RNA-zol kit (Campro Scientific, Houston, Tex.). Total RNA (10 μg) for each sample was separated in a 0.8% formaldehyde-denaturing gel, transferred to nitrocellulose (Hybond N+, Amersham International, Amersham, UK) and hybridized to a ^32P-labelled 1.9 Kb c-DNA probe, containing the functional sequence of the human ICAM-1 gene (a gift from Dr. B. Seed). Membranes were washed at a high stringency in 0.2×SSC, 0.1% SDS at 50° C. for 1 hour. Filters were exposed to X-ray films (Kodak X-omat, Eastman Kodak Company, Rochester, N.Y.) using an intensifying screen at −80° C. for not less than 12 hr. Autoradiograms were subjected to scanning using a laser densitometer (Model GS670, Bio-Rad, Hercules, Calif.) and data were analysed with the Molecular Analyst PC™ software. The intensity of the major ICAM-1 mRNA transcript was normalized with respect to actin mRNA expression used as a control.

With platelet factor 4 [PF4], the “bFGF mediated downregulation of ICAM-1 (in words)” value (10 ng/ml bFGF for 3 days, 100 μg/ml added simultaneously) is listed as “did not result in the loss of ICAM-1 expression”. Under “100 μg/ml, without bFGF”, the “expression of ICAM-1 (in words)” value is given as “enhanced the expression of ICAM-1”. For the same substance, the “decreased inflammatory response (TNFα upregulation of ICAM-1) of angiogenic stimulated EC (in words)” value (HUVEC 3 days 10 ng/ml bFGF, then 3 days with bFGF and test agent, 4 ng/ml TNFα last 16 hours) is “overcome”. In addition, the “reinduction of ICAM-1 expression after bFGF preincubation (in words)” value (HUVEC pretreated 3 days with bFGF, then 100 μg/ml for 3 days in the presence of bFGF) is given as “reinduction of ICAM-1”.
